Data as given in patent US20240335407A1, “PHARMACEUTICAL COMPOSITION AND USE THEREOF” (NEURODAWN PHARMACEUTICAL CO., LTD., priority 2021, published 2024).

Columns and labels:
[1] = system: neuropathic pain induced by separate L5 spinal nerve ligation (SNL); assay: Mechanical pain threshold (MWT) in the L5 spinal nerve ligation (SNL) model of neuropathic pain, with synergy analysis (Jin Zhengjun q, CompuSyn CI); type: in vivo, Sprague-Dawley (SD) rats; settings: Example 1, Mean ± SEM
Experimental: In this experiment, the model of neuropathic pain induced by separate L5 spinal nerve ligation (SNL) was adopted. Animals were anesthetized with 7% chloral hydrate (dosage: 420 mg/kg, intraperitoneal injection), and the limbs of rats were fixed in a prone position. The rats were placed under dissecting microscope with the back hair-cut off, then wiped and disinfected with alcohol. An incision about 2-3 cm long was cut on the right side of the dorsal spine, and the two spinal nerves L4 and L5 were exposed, the spinal nerve L5 was lightly ligated with 6-0 braided line to avoid damage to the contiguous spinal nerves. Double-layer suture was performed on the back incisions of the experimental animals, and disinfected with iodophor, then the experimental animals were gently put into a feeding cage, allowed to free access to movement, eating and drinking.
Mechanical withdrawal threshold (MWT) of all experimental animals was measured by mechanical automatic stimulated needle. The experimental animals were placed in a transparent plexiglass box with iron gauze at the bottom, and after acclimatization for 30 minutes, the vola of the hind limbs of the experimental animals were stimulated with a stimulated needle at a uniform speed, and the reaction threshold when rats rapidly retracted or shook their feet was recorded (as MWT), which was the mechanical pain threshold of the animals.
The basic mechanical pain threshold of each experimental animal was measured for 2 days […], and the basic mechanical pain threshold of experimental animals was the average of two values. […]
The L5-SNL model was prepared by selecting SD rats with appropriate weight, and the measurement of postoperative mechanical pain threshold was started at least 7 days after modeling. […] The experimental model animals were administered corresponding drugs or solvents, and the mechanical pain threshold of animals was measured at 0.5 h and 3 h after administration. […]

[2] = system: neuropathic pain induced by separate L5 spinal nerve ligation (SNL); assay: as above; type: in vivo, Sprague-Dawley (SD) rats; settings: Mean ± SEM
[3] = Example 1, 0.5 mg/kg intraperitoneal
[4] = Example 2, 1 mg/kg intraperitoneal
[5] = Example 2, 10 mg/kg intraperitoneal
[6] = Example 3, 3 mg/kg intraperitoneal
[7] = Example 3, 12 mg/kg intraperitoneal
[8] = Example 4, 3 mg/kg intraperitoneal
[9] = Example 4, 6 mg/kg intraperitoneal
[10] = Example 4, 12 mg/kg intraperitoneal
[11] = Example 5, 3 mg/kg intraperitoneal
[12] = Example 5, 6 mg/kg intraperitoneal
[13] = Example 6, 6 mg/kg intraperitoneal
[14] = Example 6, 7.5 mg/kg intraperitoneal
[15] = Example 6, 10 mg/kg intraperitoneal
[16] = Example 2, 20 mg/kg intraperitoneal
[17] = Example 3, 18 mg/kg intraperitoneal
[18] = Example 3, 30 mg/kg intraperitoneal
[19] = Example 4, 9 mg/kg intraperitoneal
[20] = Example 4, 18 mg/kg intraperitoneal
[21] = Example 5, 9 mg/kg intraperitoneal

Q: Which results are given for Nc1nc2ccc(OC(F)(F)F)cc2s1 [riluzole]?
A: pain threshold at 3 h after administration ([1]; 0.5 mg/kg intraperitoneal, 3 h): 14.04 ± 0.91 g; pain threshold at 0.5 h after administration ([1]; 10 mg/kg intraperitoneal): 21.56 ± 1.24 g; pain threshold at 0.5 h after administration [2, 3]: 14.25 ± 0.90 g; pain threshold at 3 h after administration ([2]; Example 1, 10 mg/kg intraperitoneal): 19.87 ± 0.92 g; pain threshold at 0.5 h after administration [2, 4]: 14.08 ± 0.92 g; pain threshold at 3 h after administration [2, 4]: 14.01 ± 0.99 g; pain threshold at 0.5 h after administration [2, 5]: 21.79 ± 1.33 g; pain threshold at 3 h after administration [2, 5]: 20.63 ± 1.12 g; pain threshold at 0.5 h after administration [2, 6]: 15.48 ± 0.92 g; pain threshold at 3 h after administration [2, 6]: 15.16 ± 1.31 g; pain threshold at 0.5 h after administration [2, 7]: 22.54 ± 1.33 g; pain threshold at 3 h after administration [2, 7]: 21.69 ± 1.12 g; pain threshold at 0.5 h after administration [2, 8]: 15.43 ± 0.69 g; pain threshold at 3 h after administration [2, 8]: 15.03 ± 0.79 g; pain threshold at 0.5 h after administration [2, 9]: 18.47 ± 0.37 g; pain threshold at 3 h after administration [2, 9]: 17.47 ± 0.73 g; pain threshold at 0.5 h after administration [2, 10]: 22.54 ± 1.33 g; pain threshold at 3 h after administration [2, 10]: 21.69 ± 1.12 g; pain threshold at 0.5 h after administration [2, 11]: 15.35 ± 0.58 g; pain threshold at 3 h after administration [2, 11]: 14.98 ± 0.84 g; pain threshold at 0.5 h after administration [2, 12]: 18.21 ± 0.47 g; pain threshold at 3 h after administration [2, 12]: 17.45 ± 0.46 g; pain threshold at 0.5 h after administration [2, 13]: 22.96 g; pain threshold at 3 h after administration [2, 13]: 15.74 ± 0.93 g; pain threshold at 6 h after administration [2, 13]: 15.08 ± 0.77 g; pain threshold at 8 h after administration [2, 13]: 14.95 ± 0.81 g; pain threshold at 3 h after administration [2, 14]: 16.44 ± 1.07 g; pain threshold at 6 h after administration [2, 14]: 16.52 ± 1.06 g; pain threshold at 8 h after administration [2, 14]: 15.49 ± 1.18 g; pain threshold at 3 h after administration [2, 15]: 17.89 ± 1.16 g; pain threshold at 6 h after administration [2, 15]: 17.46 ± 1.23 g; pain threshold at 8 h after administration [2, 15]: 16.93 ± 1.15 g

Q: Which results are given for CC(C)C[C@H](CN)CC(=O)O [pregabalin, (S)-3-aminomethyl-5-methylhexanoic acid]?
A: pain threshold at 0.5 h after administration ([1]; 25 mg/kg intraperitoneal): 17.41 ± 0.58 g; pain threshold at 0.5 h after administration [2, 3]: 15.48 ± 1.27 g; pain threshold at 3 h after administration [2, 3]: 15.54 ± 1.15 g; pain threshold at 3 h after administration ([2]; Example 1, 25 mg/kg intraperitoneal): 24.65 ± 0.34 g; pain threshold at 0.5 h after administration [2, 4]: 15.57 ± 1.04 g; pain threshold at 3 h after administration [2, 4]: 15.68 ± 1.32 g; pain threshold at 0.5 h after administration [2, 16]: 17.04 ± 0.54 g; pain threshold at 3 h after administration [2, 16]: 24.76 ± 0.73 g; pain threshold at 0.5 h after administration [2, 6]: 15.19 ± 1.31 g; pain threshold at 3 h after administration [2, 6]: 16.75 ± 1.14 g; pain threshold at 0.5 h after administration [2, 17]: 16.36 ± 1.35 g; pain threshold at 3 h after administration [2, 17]: 23.92 ± 1.30 g; pain threshold at 0.5 h after administration [2, 18]: 18.05 ± 0.73 g; pain threshold at 3 h after administration [2, 18]: 26.13 ± 0.91 g; pain threshold at 0.5 h after administration [2, 8]: 15.24 ± 0.95 g; pain threshold at 3 h after administration [2, 8]: 16.96 ± 1.22 g; pain threshold at 0.5 h after administration [2, 19]: 15.03 ± 1.21 g; pain threshold at 3 h after administration [2, 19]: 21.13 ± 1.13 g; pain threshold at 0.5 h after administration [2, 20]: 16.26 ± 0.74 g; pain threshold at 3 h after administration [2, 20]: 24.54 ± 0.56 g; pain threshold at 0.5 h after administration [2, 11]: 15.35 ± 0.57 g; pain threshold at 3 h after administration [2, 11]: 16.73 ± 1.15 g; pain threshold at 0.5 h after administration [2, 12]: 15.24 ± 1.15 g; pain threshold at 3 h after administration [2, 12]: 19.15 ± 1.21 g; pain threshold at 0.5 h after administration [2, 21]: 15.78 ± 0.83 g; pain threshold at 3 h after administration [2, 21]: 21.66 ± 0.79 g; pain threshold at 0.5 h after administration [2, 13]: 17.39 ± 1.26 g; pain threshold at 3 h after administration [2, 13]: 19.62 g; pain threshold at 6 h after administration [2, 13]: 19.49 g; pain threshold at 8 h after administration [2, 13]: 19.26 g; pain threshold at 0.5 h after administration ([2]; Example 6, 20 mg/kg intraperitoneal): 17.53 ± 1.33 g; pain threshold at 0.5 h after administration ([2]; Example 6, 30 mg/kg intraperitoneal): 18.65 ± 1.24 g
